Measurements taken from patent publication US20260125382A1, “COMPOUNDS FOR INHIBITING OR DEGRADING CDK2 AND/OR CDK9 AND MEDICINAL USE THEREOF” (KOREA RESEARCH INSTITUTE OF CHEMICAL TECHNOLOGY, priority 2022, published 2026).

Key:
CDK2 = target: T1, CDK2 (Homo sapiens, UniProt P24941); experiment: CDK protein degradation activity (Western blotting), CDK2; format: cell-based; conditions: MDA-MB-231 cells, 16 hours, Western blot
T1 construct: endogenous in cells; host or cells: MDA-MB-231
In short: (§1)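 MDA-MB-231; cmpd 100 nM / 1 μM / 10 μM final vs DMSO, 16 h. Triton X-100 lysates (pH 7.5, phosphatase/protease inhibitors) → SDS-PAGE → Western blot, anti-CDK2, anti-CDK9, tubulin loading control; densitometry.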

CDK9 = target: T2, CDK9 (Homo sapiens, UniProt P50750); experiment: CDK protein degradation activity (Western blotting), CDK9; format: cell-based; conditions: MDA-MB-231 cells, 16 hours, Western blot
T2 construct: endogenous in cells; host or cells: MDA-MB-231
T2 sequence (P50750 whole entry): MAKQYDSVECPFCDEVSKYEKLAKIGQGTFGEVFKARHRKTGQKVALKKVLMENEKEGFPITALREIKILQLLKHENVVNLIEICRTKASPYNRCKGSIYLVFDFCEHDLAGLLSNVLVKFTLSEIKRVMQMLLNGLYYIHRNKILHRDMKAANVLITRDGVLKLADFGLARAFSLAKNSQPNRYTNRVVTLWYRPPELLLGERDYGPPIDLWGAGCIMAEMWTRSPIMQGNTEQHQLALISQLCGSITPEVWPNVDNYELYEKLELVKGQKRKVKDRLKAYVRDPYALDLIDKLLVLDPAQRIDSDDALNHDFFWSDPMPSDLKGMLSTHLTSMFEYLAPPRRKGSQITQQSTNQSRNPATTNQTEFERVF
In short: as §1

Row | SMILES | Enzyme degradation CDK2 (% remaining) @ 0.1 μM (CDK2) | Enzyme degradation CDK2 (% remaining) @ 1 μM (CDK2) | Enzyme degradation CDK2 (% remaining) @ 10 μM (CDK2) | Enzyme degradation CDK9 (% remaining) @ 0.1 μM (CDK9) | Enzyme degradation CDK9 (% remaining) @ 1 μM (CDK9) | Enzyme degradation CDK9 (% remaining) @ 10 μM (CDK9)
1 | O=C1CC[C@H](N2C(=O)c3ccc(N4CCN(CCC5CCN(c6ccc(Nc7ncnc8c7ncn8[C@H]7C[C@@H](NC(=O)Cc8ccccc8)C7)cc6)CC5)CC4)cc3C2=O)C(=O)N1 [Compound 338, N-((1s,3s)-3-(6-((4-(4-(2-(4-(2-(2,6-dioxopiperidin-3-yl)-1,3-dioxoisoindolin-5-yl)piperazin-1-yl)ethyl)piperidin-1-yl)phenyl)amino)-9H-purin-9-yl)cyclobutyl)-2-phenylacetamide] | 10% | 0% | 0% | 50% | 0% | 0%
2 | O=C1CC[C@H](N2C(=O)c3ccc(N4CC(C(=O)N5CCC(N6CCN(c7ccc(Nc8ncnc9c8ncn9[C@H]8C[C@@H](NC(=O)Cc9ccccc9)C8)cc7)CC6)CC5)C4)cc3C2=O)C(=O)N1 [Compound 342, N-((1s,3s)-3-(6-((4-(4-(1-(1-(2-(2,6-dioxopiperidin-3-yl)-1,3-dioxoisoindolin-5-yl)azetidin-3-carbonyl)piperidin-4-yl)piperazin-1-yl)phenyl)amino)-9H-purin-9-yl)cyclobutyl)-2-phenylacetamide] | 0/0/0% | 0/0/0% | 0/0/0% | 0/0/0% | 0/0/0% | 0/0/0%
3 | O=C1CCC(n2nnc3ccc(N4CC(N5CCN(c6ccc(Nc7ncnc8c7ncn8[C@H]7C[C@@H](NC(=O)Cc8ccccc8)C7)cc6)CC5)C4)cc3c2=O)C(=O)N1 (stereo partly drawn) [Compound 346, N-((1s,3s)-3-(6-((4-(4-(1-(3-(2,6-dioxopiperidin-3-yl)-4-oxo-3,4-dihydrobenzo[d][1,2,3]triazin-6-yl)azetidin-3-yl)piperazin-1-yl)phenyl)amino)-9H-purin-9-yl)cyclobutyl)-2-phenylacetamide] | 10% | 0% | 0% | 30/30/30% | 30/30/30% | 30/30/30%

Continued, values first:

Row | Enzyme degradation CDK2 (% remaining) @ 0.1 μM (CDK2) | Enzyme degradation CDK2 (% remaining) @ 1 μM (CDK2) | Enzyme degradation CDK2 (% remaining) @ 10 μM (CDK2) | Enzyme degradation CDK9 (% remaining) @ 0.1 μM (CDK9) | Enzyme degradation CDK9 (% remaining) @ 1 μM (CDK9) | Enzyme degradation CDK9 (% remaining) @ 10 μM (CDK9) | SMILES
4 | 0/0/0% | 0/0/0% | 0/0/0% | 50% | 10% | 10% | O=C1CC[C@H](n2nnc3ccc(N4CCN(C5CC6(CCN(c7ccc(Nc8ncnc9c8ncn9C8CC(NC(=O)Cc9ccccc9)C8)cc7)CC6)C5)CC4)cc3c2=O)C(=O)N1 (stereo partly drawn) [Compound 337, N-((1s,3s)-3-(6-((4-(2-(4-(3-(2,6-dioxopiperidin-3-yl)-4-oxo-3,4-dihydrobenzo[d][1,2,3]triazin-6-yl)piperazin-1-yl)-7-azaspiro[3.5]nonan-7-yl)phenyl)amino)-9H-purin-9-yl)cyclobutyl)-2-phenylacetamide]
5 | 30% | 30% | 40% | 10% | 0% | 0% | O=C1CC[C@H](N2C(=O)c3ccc(N4CCC(C(=O)N5CCC(N6CCN(c7ccc(Nc8ncnc9c8ncn9[C@H]8C[C@@H](NC(=O)Cc9ccccc9)C8)cc7)CC6)CC5)CC4)cc3C2=O)C(=O)N1 [Compound 343, N-((1s,3s)-3-(6-((4-(4-(1-(1-(2-(2,6-dioxopiperidin-3-yl)-1,3-dioxoisoindolin-5-yl)piperidin-4-carbonyl)piperidin-4-yl)piperazin-1-yl)phenyl)amino)-9H-purin-9-yl)cyclobutyl)-2-phenylacetamide]
